Experiments:
Format in all cases: in vivo
[1] = system: cabbage looper (Trichoplusia ni); experiment: Test B: control of cabbage looper by soil application to cabbage plants, excised-leaf feeding, visual mortality; settings: 96 h, read-out: % Mortality (Observed)
Procedure: (§1) For evaluating control of cabbage looper (Trichoplusia ni) and tobacco budworm (Heliothis virescens), methomyl was in liquid formulation as Lannate® LV (29% of active ingredient). Oxamyl was in liquid formulation as Vydate® L (24% of active ingredient).
(§2) The test compounds were dissolved in water. Enough water was added to make 57 ppm of the Lannate® LV and 250 and 500 ppm of active ingredient for Vydate® L. To obtain the desired mixture concentrations of each compound, twice the desired concentration of each of the two mixture compounds were mixed together in equal volumes.
(§3) For the cabbage looper trial, diluted solutions (50 mL) of the test compounds were applied to the soil surface of five-week-old cabbage plants at the desired concentrations, corresponding to 135 g a.i./ha (g active ingredient/hectare) of methomyl and 404 and 807 g a.i./ha of oxamyl. For the tobacco budworm trial, diluted solutions (50 mL) of the test compounds were applied to the soil surface of five-week-old tomato plants at the desired concentrations, corresponding to 92 g a.i./ha (g active ingredient/hectare) of methomyl and 404 and 807 g a.i./ha of oxamyl. The plants were maintained in a greenhouse for 24 h. From each plant, leaves were excised, cut into pieces, and placed singly into 5.5 cm-by-3.5 cm cell of a sixteen-cell plastic tray. Each cell contained solidified agar (3 to 5 mL) to prevent desiccation. A single 4-day old insect larva was placed in each cell, with two trays per treatment. Trays were held in a growth chamber at 25° C., 16-hour light/8-hour dark photoperiod, 60% relative humidity for 4 days.

[2] = system: tobacco budworm (Heliothis virescens); experiment: Test B: control of tobacco budworm by soil application to tomato plants, excised-leaf feeding, visual mortality; settings: 96 h, read-out: % Mortality (Observed)
Procedure: as §1, §2, §3

[3] = system: beet armyworm (Spodoptera exigua); experiment: Test A: control of beet armyworm by soil application to tomato plants, excised-leaf feeding, visual mortality
Procedure: For evaluating control of beet armyworm (Spodoptera exigua), methomyl was in liquid formulation as Lannate® LV (29% of active ingredient). Oxamyl was in liquid formulation as Vydate® L (24% active ingredient).
The test compounds were dissolved in water. Enough water was added to make 29 ppm of active ingredient for Lannate® LV and 500 ppm of active ingredient for Vydate® L. To obtain the desired mixture concentrations of each compound, twice the desired concentration of each of the two mixture partner compounds were mixed together in equal volumes.
Diluted solutions (50 mL) of the test compounds were applied to the soil surface of five-week-old tomato plants at the desired concentration, corresponding to 47 g a.i./ha (g active ingredient/hectare) of methomyl and 807 g a.i./ha of oxamyl. The plants were maintained in a greenhouse for 24 h. From each plant, leaves were excised, cut into pieces, and placed singly into 5.5 cm-by-3.5 cm cell of a sixteen-cell plastic tray. Each cell contained solidified agar (3 to 5 mL) to prevent desiccation. A single 4-day old insect larva was placed in each cell, with one tray per treatment. Trays were held in a growth chamber at 25° C., 16-hour light/8-hour dark photoperiod, 60% relative humidity for 4 days.

CNC(=O)ON=C(SC)C(=O)N(C)C [Oxamyl, methyl 2-(dimethylamino)-N-[[(methylamino)-carbonyl]oxy]-2-oxoethanimidothioate]
mortality at 404 g/ha ([1]; soil): 16%
mortality at 807 g/ha ([1]; soil): 38%
mortality at 404 g/ha ([2]; soil): 6%
mortality at 807 g/ha ([2]; soil): 13%
mortality at 807 g/ha ([3]; Spodoptera exigua, soil, 96 h, read-out: % mortality (observed)): 0%
% mortality (observed) ([3]; oxamyl 807 g a.i./ha, soil application, five-week-old tomato plants, evaluated at 96 h): no mortality

CNC(=O)ON=C(C)SC [Methomyl, methyl N-[[(methylamino)carbonyl]oxy]-ethanimidothioate]
mortality at 135 g/ha ([1]; methomyl 135 g a.i./ha, soil application, five-week-old cabbage plants): 75%
mortality at 92 g/ha ([2]; methomyl 92 g a.i./ha, soil application, five-week-old tomato plants): 41%
mortality at 47 g/ha ([3]; Spodoptera exigua, methomyl 47 g a.i./ha, soil application, five-week-old tomato plants, evaluated at 96 h, read-out: % mortality (observed)): 44%

Source: patent US20080287534A1, “Method for Controlling Insect Pests on Plants” (priority 2005, published 2008)
